Experimental data published in ChEMBL document CHEMBL5576106, “Highly Functionalized Spirobisnaphthalenes from Roussoella sp. KT4147” (J Nat Prod, 2024).

test system: COLO 201; experiment: Cytotoxicity against human COLO201 cells assessed as inhibition of cell growth incubated for 24 hrs by WST-1 assay; type: functional, cell-based; details: COLO 201, 24 h

Compound | IC50 [µM]
CC[C@@]1(O)C(=O)OCc2c1cc1n(c2=O)Cc2cc3ccccc3nc2-1 [CAMPTOTHECIN] | 27
O=C1C[C@@H](N[C@@H]2CC(=O)c3cccc4c3[C@@]23Oc2ccc(O)c5c2[C@](O4)(O3)[C@@H]2O[C@@H]2C5=O)[C@]23Oc4ccc(O)c5c4[C@](Oc4cccc1c42)(O3)[C@@H]1O[C@@H]1C5=O | 5.7
COc1cc(=O)oc2c1[C@H](CO)[C@@H]1[C@H](C2)C(=O)c2cccc3c2[C@@]12Oc1ccc(O)c4c1[C@](O3)(O2)[C@@H]1O[C@@H]1C4=O | 5.4
O=C1C=CC(=O)C2=C1[C@@H](O)[C@H]1O[C@H]1C21Oc2cccc3cccc(c23)O1 | 9.4
Oc1ccc(O)c2c1[C@@H](O)C[C@@H](O)C21Oc2cccc3cccc(c23)O1 | 9.8
